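Exposure lasted 48 hours, with cells grown in 96-well plates and compounds tested at five concentrations. The concentration for 50% growth inhibition is given as GI50.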 Active and inactive are the calls of the source. Cut-off read from the data, not from the text of the source: active = GI50 up to about 1.1 µM and inactive = higher.
Assays:
Experiment in all cases: NCI tumour cell line growth inhibition, 48 h
786-0 = system: 786-0
A549 = system: A549
ACHN = system: ACHN
BT-549 = system: BT-549
HOP-62 = system: HOP-62
Hs-578T = system: Hs-578T
LOX IMVI = system: LOX IMVI
MCF7 = system: MCF7
MDA-N = system: MDA-N
NCI-H23 = system: NCI-H23
NCI-H522 = system: NCI-H522
NCI/ADR-RES = system: NCI/ADR-RES
OVCAR-5 = system: OVCAR-5
SK-MEL-28 = system: SK-MEL-28
SK-OV-3 = system: SK-OV-3
T47D = system: T47D
TK-10 = system: TK-10
UO-31 = system: UO-31
KM12 = system: KM12

Measured: GI50

NCCN(CCN(C(=O)Nc1ccccc1)c1ccccc1)C(=O)Nc1ccccc1
inactive: 786-0 24.9 µM | A549 30.6 µM | ACHN 20.5 µM | BT-549 22.7 µM | HOP-62 16.7 µM | Hs-578T 19.2 µM | LOX IMVI 19.4 µM | MCF7 19.6 µM | MDA-N 20.3 µM | NCI-H23 24.3 µM | NCI-H522 19 µM | NCI/ADR-RES 30.8 µM | OVCAR-5 19 µM | SK-MEL-28 19 µM | SK-OV-3 20 µM | T47D 20.7 µM | TK-10 24.5 µM | UO-31 15.3 µM

Cn1ccc(C(=O)NCCCCCNC(=O)c2ccn(C)c(=O)c2O)c(O)c1=O
inactive: 786-0 > 100 µM | A549 > 100 µM | ACHN > 100 µM | BT-549 > 100 µM | Hs-578T > 100 µM | KM12 > 100 µM | LOX IMVI > 100 µM | MDA-N > 100 µM | NCI-H23 > 100 µM | NCI-H522 > 100 µM | NCI/ADR-RES > 100 µM | SK-MEL-28 > 100 µM | T47D > 100 µM | TK-10 > 100 µM | UO-31 > 100 µM

Cc1ccc(/C=N/NS(=O)(=O)c2ccc(/C=C3\NC(=O)NC3=O)cc2)cc1
inactive: 786-0 61.1 µM | A549 > 100 µM | ACHN > 100 µM | BT-549 > 100 µM | HOP-62 27.6 µM | Hs-578T 24.2 µM | KM12 > 100 µM | LOX IMVI > 100 µM | MCF7 > 100 µM | MDA-N > 100 µM | NCI-H23 > 100 µM | NCI/ADR-RES 75.7 µM | OVCAR-5 35.9 µM | SK-MEL-28 > 100 µM | SK-OV-3 > 100 µM | T47D > 100 µM | TK-10 > 100 µM | UO-31 > 100 µM

CC(=O)N(C)c1ccc(/N=C/N(C)C)cc1
inactive: 786-0 > 100 µM | A549 > 100 µM | ACHN > 100 µM | BT-549 > 100 µM | HOP-62 > 100 µM | Hs-578T > 10 µM | LOX IMVI > 100 µM | MCF7 82.4 µM | MDA-N > 100 µM | NCI-H23 > 100 µM | NCI-H522 > 100 µM | NCI/ADR-RES > 100 µM | OVCAR-5 > 100 µM | SK-MEL-28 > 100 µM | SK-OV-3 > 100 µM | T47D > 100 µM | TK-10 > 100 µM | UO-31 > 100 µM

O=C1C[C@H](c2ccccc2)O[C@@H](c2ccccc2)C1
inactive: 786-0 88.1 µM | A549 > 100 µM | BT-549 > 100 µM | HOP-62 > 100 µM | Hs-578T > 100 µM | KM12 > 100 µM | LOX IMVI > 100 µM | MCF7 74.3 µM | MDA-N > 100 µM | NCI-H23 > 100 µM | NCI/ADR-RES > 100 µM | OVCAR-5 > 100 µM | SK-MEL-28 > 100 µM | SK-OV-3 > 100 µM | T47D > 100 µM | UO-31 > 100 µM

Cc1cc2nc3c(C#N)c4c(c(Nc5ccc(F)cc5)n3c2cc1C)CCC4
inactive: 786-0 > 100 µM | A549 > 100 µM | ACHN > 100 µM | BT-549 > 100 µM | HOP-62 > 100 µM | Hs-578T 70.5 µM | KM12 > 100 µM | LOX IMVI > 100 µM | MCF7 > 100 µM | MDA-N > 100 µM | NCI-H23 > 100 µM | NCI-H522 95.5 µM | NCI/ADR-RES > 100 µM | OVCAR-5 > 100 µM | SK-MEL-28 > 100 µM | SK-OV-3 > 100 µM | T47D > 100 µM | TK-10 > 100 µM

Nc1nc(Nc2ccc(Cl)cc2)sc1C(=O)c1cc2ccccc2oc1=O
inactive: 786-0 19.5 µM | A549 98.9 µM | ACHN > 100 µM | BT-549 28 µM | HOP-62 12.9 µM | Hs-578T 27.2 µM | KM12 35.2 µM | LOX IMVI 23.8 µM | MCF7 25 µM | MDA-N 37.3 µM | NCI-H23 2.93 µM | NCI/ADR-RES 38.5 µM | OVCAR-5 > 100 µM | SK-MEL-28 46.5 µM | SK-OV-3 20.7 µM | T47D 27.7 µM | TK-10 > 100 µM | UO-31 > 100 µM

O=[N+]([O-])c1ccc2c(/N=N/c3c(O)ccc4ccccc34)c(O)cc(S(=O)(=O)O)c2c1
inactive: 786-0 11.7 µM | A549 15.4 µM | ACHN 4.86 µM | BT-549 26.9 µM | HOP-62 6.73 µM | Hs-578T > 50 µM | KM12 24.2 µM | LOX IMVI 17.4 µM | MCF7 49.9 µM | MDA-N 15.5 µM | NCI-H23 20.9 µM | NCI-H522 4.76 µM | NCI/ADR-RES 6.92 µM | OVCAR-5 8.34 µM | SK-MEL-28 10.1 µM | SK-OV-3 36.4 µM | TK-10 37.1 µM | UO-31 2.45 µM

From ChEMBL document CHEMBL1201862, “PubChem BioAssay data set” (2004)
